Test results taken from US9534059B2, “TIKI inhibitors” (Children's Medical Center Corporation, priority 2012, dated 2017).
“Also recorded” adds a separate entry of the source.

T1: TIKI2N (Homo sapiens, UniProt A6NFA1)
T1 construct: which is the extracellular domain of TIKI2 fused with a carboxyl FLAG tag and a 6×HIS tag; made in house; host or cells: HEK293T
T1 sequence (A6NFA1 20-486 limits assumed): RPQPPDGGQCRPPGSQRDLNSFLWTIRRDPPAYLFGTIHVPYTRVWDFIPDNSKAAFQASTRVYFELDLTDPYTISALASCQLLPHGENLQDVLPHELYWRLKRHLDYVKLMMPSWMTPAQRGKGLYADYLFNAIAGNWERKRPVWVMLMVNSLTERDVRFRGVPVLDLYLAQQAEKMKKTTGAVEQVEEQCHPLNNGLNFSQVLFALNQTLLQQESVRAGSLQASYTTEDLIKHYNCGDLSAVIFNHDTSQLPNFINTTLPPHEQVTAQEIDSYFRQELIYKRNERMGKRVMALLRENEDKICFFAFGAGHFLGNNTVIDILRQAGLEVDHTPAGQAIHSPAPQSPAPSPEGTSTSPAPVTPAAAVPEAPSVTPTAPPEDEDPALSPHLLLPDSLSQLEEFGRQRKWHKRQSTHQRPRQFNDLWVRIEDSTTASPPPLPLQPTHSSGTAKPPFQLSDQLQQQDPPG


What was measured:
TIKI2N = target: T1, TIKI2N; test: In vitro treatment of HA-Wnt3a with purified TIKI2N (cleavage, Western blotting); type: biochemical; details: for TIKI2N activity (cleavage of HA-Wnt3a) in the presence of protease inhibitor / Effects of divalent metals on TIKI2N activity: in vitro; for TIKI2N activity (cleavage of HA-Wnt3a) in the presence of protease inhibitor: purified TIKI2N + recombinant HA-Wnt3a, Western blotting; for Rescue of TIKI2N activity with divalent metals after inhibition with 1,10-Phenanthroline: 20 μM 1,10-Phenanthroline 1 hr, then 50 μM metal ion for another 2 hrs; for Effects of divalent metals on TIKI2N activity: 50 μM of each divalent metal ion, 2 hrs
Experimental: HEK293T cells in 100 mm dishes were transfected with TIKI2N-, KRM2N-, TIKI2NΔ-FLAG-6×HIS (“6×HIS” disclosed as SEQ ID NO: 57) or HA-Wnt3a vectors. The medium containing transfection mixture was replaced with 6 ml fresh medium 24 hrs post-transfection, and incubated for another 24 hrs. To purify TIKI2N, KRM2N and TIKI2NΔ, cells were washed with PBS and lysed in ice-cold PBS containing 0.2% NP-40, 20 mM imidazole and the protease inhibitor cocktail (Roche) to make whole cell lysates (WCL). WCL was mixed with Ni-NTA agarose beads (QIAGEN) and incubated at 4° C. with rotation for 1 hr. The beads were pelleted by centrifugation and washed four times with PBS/0.2% NP-40 and the FLAG-6×HIS (“6×HIS” disclosed as SEQ ID NO: 57) fusion proteins were eluted with PBS/0.2% NP-40 containing 100 mM imidazole. The elute was diluted 3 time with PBS/0.2% NP-40 and were mixed with FLAG M2 agarose beads (Sigma). Following 2 hrs incubation with rotation at 4° C., the beads were pelleted by centrifugation and washed three times with PBS/0.2% NP-40 and one time with HEPES buffer (50 mM HEPES (pH 7.4), 100 mM NaCl, 0.2% NP-40). The FLAG fusion proteins were eluted with HEPES buffer containing 50 μg/ml 3×FLAG peptide. To purify HA-Wnt3a, the conditioned medium (CM) was collected and was cleared by centrifugation and 0.2% NP-40 was added. The CM was mixed with anti-HA agarose beads (Sigma). Following 2 hrs incubation with rotation at 4° C., the beads were pelleted by centrifugation and washed three times with PBS/0.2% NP-40 and one time with HEPES buffer (50 mM HEPES (pH 7.4), 100 mM NaCl, 0.2% NP-40). The HA-Wnt3a protein was eluted with HEPES buffer containing 300 μg/ml HA peptide.
About 50 ng purified TIKI2N, KRM2N, or TIKI2NΔ protein was mixed with 10 ng purified HA-Wnt3a in a total volume of 10 μl HEPES buffer (50 mM HEPES (pH 7.4), 100 mM NaCl, 0.2% NP-40) and incubated at 30° C. To examine TIKI2N activity in different pH conditions, the following buffer was used instead of HEPES, 100 mM sodium acetate (pH 5.5), 100 mM Tris-HCl (pH 6, 7, 8, 9) or 50 mM CAPS (pH 10, 11). The reaction product was analyzed by SDS-PAGE and Western blotting with anti-HA and anti-Wnt3a antibodies. For mass spectrometric analysis, 200 ng of recombinant Wnt3a (from Stem RD) was incubated with about 500 ng of TIKIN or KRM2N overnight at 30° C. and separated by SDS-PAGE. The Wnt3a bands were cut, trypsin digested and subjected to mass spectrometric analyses.
TIKI protease activity was characterized under in vitro conditions. […] Different protease inhibitors were applied to survey which protease family TIKI might belong to. […] Metalloproteases are defined by their dependence on divalent metals as co-factors (Barrett, 1998).

Wnt3a = test: TOPFLASH assay of TIKI2N mutants co-transfected with Wnt3a in HEK293T cells; type: cell-based, human; details: 5, 2.5, 1.25 and 0.612 ng plasmid with Wnt3a 20 ng
Experimental: FIG. 8B. Bar graph showing the results of a TOPFLASH assay testing TIKI2 mutations in Human TIKI2N construct (no transmembrane domain). Decreasing doses of 5, 2.5, 1.25 and 0.612 ng of the indicated TIKI2N expression plasmid were cotransfected with Wnt3a (20 ng) in HEK293T cells.
HEK293T, HeLa, L and L-Wnt3a cells (from ATCC) were maintained in Dulbecco's modified Eagle's medium (DMEM; Invitrogen) supplemented with 10% fetal bovine serum (FBS) and 1% penicillin-streptomycin-glutamine (Invitrogen). Lipofectamine 2000 (Invitrogen) or Fugene6 (Roche) was used for all cell transfections. L and L-Wnt3a cells that stably express TIKI2 were generated by infecting cells with retroviruses and selected by puromycin. L cells stably expressing Wnt3a(FLAG) were established by transfecting L cells with a Wnt3a(FLAG) expressing vector and selected with neomycine. L cells stably expressing both Wnt3a(FLAG) and TIKI2 were also generated. TOPFLASH reporter assay was performed as previously described (MacDonald et al., 2008).
A Wnt-responsive reporter (TOP-FLASH) assay was performed to test mutations at T56A, H58A, E85A, E205A, H256A, R303A, H331A in a Human TIKI2N construct (no transmembrane domain). Decreasing doses of 5, 2.5, 1.25 and 0.612 ng of the indicated TIKI2N expression plasmid were co-transfected with Wnt3a (20 ng) in HEK293T cells. […] T56A, H256A, and R303A had no effect on TIM activity, and so are likely to be less important sites for function.

Row | Molecule | Effects of divalent metals on TIKI2N activity (TIKI2N) | TIKI activity of TIKI2N mutants (inhibition of Wnt3a-induced TOPFLASH) (Wnt3a) | further results
1 | c1cnc2c(c1)ccc1cccnc12 [1,10-phenanthroline] | – | – | TIKI2N activity (cleavage of HA-Wnt3a) in the presence of protease inhibitor (TIKI2N): potently inhibited; TIKI2N activity (cleavage of HA-Wnt3a) in the presence of protease inhibitor (TIKI2N; listed as 1, 10-Phenanthroline): sensitive
2 | CC(C)C[C@H](NC(=O)[C@@H](O)[C@H](N)Cc1ccccc1)C(=O)O [Bestatin] | – | – | TIKI2N activity (cleavage of HA-Wnt3a) in the presence of protease inhibitor (TIKI2N): not
3 | [Cu+2] [Cu^2+] | inhibited TIKI2N activity | – | –
4 | O=C(O)CN(CCN(CC(=O)O)CC(=O)O)CC(=O)O [EDTA] | – | – | TIKI2N activity (cleavage of HA-Wnt3a) in the presence of protease inhibitor (TIKI2N): inhibited TIKI2N activity; also recorded: inhibited, albeit more mildly
5 | [Ni+2] [Ni^2+] | inhibited TIKI2N activity | – | –
6 | H58A: alanine mutation in Human TIKI2N construct (no transmembrane domain) (protein, UniProt A6NFA1 20-494, looked up, variant H58A, extracellular domain) extracellular domain: RPQPPDGGQCRPPGSQRDLNSFLWTIRRDPPAYLFGTIAVPYTRVWDFIPDNSKAAFQASTRVYFELDLTDPYTISALASCQLLPHGENLQDVLPHELYWRLKRHLDYVKLMMPSWMTPAQRGKGLYADYLFNAIAGNWERKRPVWVMLMVNSLTERDVRFRGVPVLDLYLAQQAEKMKKTTGAVEQVEEQCHPLNNGLNFSQVLFALNQTLLQQESVRAGSLQASYTTEDLIKHYNCGDLSAVIFNHDTSQLPNFINTTLPPHEQVTAQEIDSYFRQELIYKRNERMGKRVMALLRENEDKICFFAFGAGHFLGNNTVIDILRQAGLEVDHTPAGQAIHSPAPQSPAPSPEGTSTSPAPVTPAAAVPEAPSVTPTAPPEDEDPALSPHLLLPDSLSQLEEFGRQRKWHKRQSTHQRPRQFNDLWVRIEDSTTASPPPLPLQPTHSSGTAKPPFQLSDQLQQQDPPGPASSSAPT | – | inactive | –
7 | E205A: alanine mutation in Human TIKI2N construct (no transmembrane domain) (protein, UniProt A6NFA1 20-494, looked up, variant E205A, extracellular domain) extracellular domain: RPQPPDGGQCRPPGSQRDLNSFLWTIRRDPPAYLFGTIHVPYTRVWDFIPDNSKAAFQASTRVYFELDLTDPYTISALASCQLLPHGENLQDVLPHELYWRLKRHLDYVKLMMPSWMTPAQRGKGLYADYLFNAIAGNWERKRPVWVMLMVNSLTERDVRFRGVPVLDLYLAQQAEKMKKTTGAVAQVEEQCHPLNNGLNFSQVLFALNQTLLQQESVRAGSLQASYTTEDLIKHYNCGDLSAVIFNHDTSQLPNFINTTLPPHEQVTAQEIDSYFRQELIYKRNERMGKRVMALLRENEDKICFFAFGAGHFLGNNTVIDILRQAGLEVDHTPAGQAIHSPAPQSPAPSPEGTSTSPAPVTPAAAVPEAPSVTPTAPPEDEDPALSPHLLLPDSLSQLEEFGRQRKWHKRQSTHQRPRQFNDLWVRIEDSTTASPPPLPLQPTHSSGTAKPPFQLSDQLQQQDPPGPASSSAPT | – | inactive | –
8 | H331A: alanine mutation in Human TIKI2N construct (no transmembrane domain) (protein, UniProt A6NFA1 20-494, looked up, variant H331A, extracellular domain) extracellular domain: RPQPPDGGQCRPPGSQRDLNSFLWTIRRDPPAYLFGTIHVPYTRVWDFIPDNSKAAFQASTRVYFELDLTDPYTISALASCQLLPHGENLQDVLPHELYWRLKRHLDYVKLMMPSWMTPAQRGKGLYADYLFNAIAGNWERKRPVWVMLMVNSLTERDVRFRGVPVLDLYLAQQAEKMKKTTGAVEQVEEQCHPLNNGLNFSQVLFALNQTLLQQESVRAGSLQASYTTEDLIKHYNCGDLSAVIFNHDTSQLPNFINTTLPPHEQVTAQEIDSYFRQELIYKRNERMGKRVMALLRENEDKICFFAFGAGAFLGNNTVIDILRQAGLEVDHTPAGQAIHSPAPQSPAPSPEGTSTSPAPVTPAAAVPEAPSVTPTAPPEDEDPALSPHLLLPDSLSQLEEFGRQRKWHKRQSTHQRPRQFNDLWVRIEDSTTASPPPLPLQPTHSSGTAKPPFQLSDQLQQQDPPGPASSSAPT | – | inactive | –
9 | E85A: alanine mutation in Human TIKI2N construct (no transmembrane domain) (protein, UniProt A6NFA1 20-494, looked up, variant E85A, extracellular domain) extracellular domain: RPQPPDGGQCRPPGSQRDLNSFLWTIRRDPPAYLFGTIHVPYTRVWDFIPDNSKAAFQASTRVYFALDLTDPYTISALASCQLLPHGENLQDVLPHELYWRLKRHLDYVKLMMPSWMTPAQRGKGLYADYLFNAIAGNWERKRPVWVMLMVNSLTERDVRFRGVPVLDLYLAQQAEKMKKTTGAVEQVEEQCHPLNNGLNFSQVLFALNQTLLQQESVRAGSLQASYTTEDLIKHYNCGDLSAVIFNHDTSQLPNFINTTLPPHEQVTAQEIDSYFRQELIYKRNERMGKRVMALLRENEDKICFFAFGAGHFLGNNTVIDILRQAGLEVDHTPAGQAIHSPAPQSPAPSPEGTSTSPAPVTPAAAVPEAPSVTPTAPPEDEDPALSPHLLLPDSLSQLEEFGRQRKWHKRQSTHQRPRQFNDLWVRIEDSTTASPPPLPLQPTHSSGTAKPPFQLSDQLQQQDPPGPASSSAPT | – | inactive | –

Now from value to molecule, other results behind:

Row | Effects of divalent metals on TIKI2N activity (TIKI2N) | Molecule | TIKI activity of TIKI2N mutants (inhibition of Wnt3a-induced TOPFLASH) (Wnt3a) | further results
10 | enhanced | [Co+2] [Co^2+] | – | Rescue of TIKI2N activity with divalent metals after inhibition with 1,10-Phenanthroline (TIKI2N): rescued; also recorded: fully restored
11 | enhanced | [Mn+2] [Mn^2+] | – | Rescue of TIKI2N activity with divalent metals after inhibition with 1,10-Phenanthroline (TIKI2N): rescued; also recorded: fully restored
12 | inhibited TIKI2N activity | [Zn+2] [Zn^2+] | – | –
